In patent publication US7884133B2, “Pharmaceutical compositions containing (+) cannabidioil and derivatives thereof and some such novel derivatives” (priority 2003, dated 2011):
“Also recorded” adds a separate entry of the source. Read-outs that look alike come from different tables or passages of the source.

Assays:
[1] = system: CB1−/− receptor knockout mice; assay: Intestinal motility in CB1−/− receptor knockout mice; type: in vivo; conditions: 20 mg/kg i.p., defecation rate recorded for 3 hours
Method: Female CB1−/− knockout mice were injected i.p. with (+)-7-OH-CBD-DMH, (+)-CBD-DMH or Δ^9-THC (20 mg/kg). Intestinal motility (defecation rate) was recorded for a period of 3 hours.
(§1) Female Sabra mice (2-3 months of age) were purchased from Harlan, Israel. Breeding pairs of CB1−/− receptor knockout mice were provided by Prof. A. Zimmer, University Clinic Bonn, Germany.
(§2) Defecation was measured as the number of fecal pellets voided in the open field. In some experiments (as indicated below), fecal pellets and body temperature were assessed for a prolonged period (3 hr).

female Sabra mice [2] = assay: Intestinal motility (defecation, number of fecal pellets); type: in vivo; conditions: 20 mg/kg i.p.; for inhibition of defecation / intestinal motility, in words: 60 minutes after injection; for Inhibition of Intesitinal Motility (% MPE): defecation in open field 8 min, normalized, * = P<0.05 vs vehicle
Method: as §2

CB1 receptor [3] = molecular target: T1, CB1 receptor (Rattus norvegicus, UniProt P20272); conditions: cited from earlier work
T1 sequence (P20272 whole entry): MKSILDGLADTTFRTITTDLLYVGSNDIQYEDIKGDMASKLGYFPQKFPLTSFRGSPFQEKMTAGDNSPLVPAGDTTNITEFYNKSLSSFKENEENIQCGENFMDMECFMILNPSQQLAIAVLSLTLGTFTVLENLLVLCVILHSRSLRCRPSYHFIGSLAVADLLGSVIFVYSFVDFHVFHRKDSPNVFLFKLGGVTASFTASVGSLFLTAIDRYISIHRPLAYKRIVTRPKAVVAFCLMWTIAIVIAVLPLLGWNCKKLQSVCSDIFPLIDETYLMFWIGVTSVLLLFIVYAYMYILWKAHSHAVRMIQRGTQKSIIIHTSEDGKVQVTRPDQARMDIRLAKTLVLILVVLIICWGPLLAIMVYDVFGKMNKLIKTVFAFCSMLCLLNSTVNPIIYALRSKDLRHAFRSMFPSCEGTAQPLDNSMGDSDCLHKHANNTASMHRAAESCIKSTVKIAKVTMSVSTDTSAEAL

CB2 receptor [4] = molecular target: T2, CB2 receptor (Homo sapiens, UniProt P34972); conditions: cited from earlier work
T2 sequence (P34972 whole entry): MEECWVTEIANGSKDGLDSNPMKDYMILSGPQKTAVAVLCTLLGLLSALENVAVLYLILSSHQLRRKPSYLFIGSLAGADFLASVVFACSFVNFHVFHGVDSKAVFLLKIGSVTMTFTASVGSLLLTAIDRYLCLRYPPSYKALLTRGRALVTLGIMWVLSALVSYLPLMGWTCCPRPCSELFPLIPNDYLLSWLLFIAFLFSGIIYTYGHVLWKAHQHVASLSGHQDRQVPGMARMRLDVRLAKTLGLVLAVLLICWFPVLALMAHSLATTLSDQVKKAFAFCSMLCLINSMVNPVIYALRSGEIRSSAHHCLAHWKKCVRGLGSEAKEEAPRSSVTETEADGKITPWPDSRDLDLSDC

female Sabra mice [5] = assay: Hot plate analgesia (centrally mediated pain); type: in vivo; conditions: 20 mg/kg i.p., hot plate 55° C., max 45 sec; normalized; * = P<0.05 vs vehicle
Method: Pain perception on a hot plate, is considered to be mediated by a central mechanism whereas the second, late phase of the response to an implantar injection of formalin reflects inflammatory pain mechanisms [Tjolsen, A. and Hole (1997) id. ibid.].
Thus, central pain perception was assessed by the analgesic response on a hot plate (55° C., Columbus Instruments, OH, USA). Peripheral pain was measured by the response to implantar injection of formalin (4%) 45 minutes after injection of the drug.

female Sabra mice [6] = assay: Tetrad: catalepsy (immobility) on an elevated ring; type: in vivo; conditions: 20 mg/kg i.p., elevated ring 4 min; normalized; * = P<0.05 vs vehicle
Method: (§3) Mice were injected with antagonist 90 minutes before testing and/or with agonist 60 minutes before testing in a series of four assays which reflect central cannabinoid activity [Martin (1991) id. ibid.; modified by Fride, E. and R. Mechoulam (1993) id. ibid.]. This “tetrad” consists of, consecutively, ambulation and rearing in an open field (8 minutes), immobility on an elevated ring of 5 cm diameter (4 minutes), rectal temperature (Yellow

[7] = system: arachidonic acid-induced ear inflammation in the mouse; assay: Arachidonic acid induced inflammation of the external ear; type: in vivo; conditions: for inhibition of arachidonic acid-induced ear inflammation, in words: i.p., 10 to 40 mg/kg, ear thickness every 15 minutes for 90 minutes
Method: Ear inflammation was measured by assessing ear tissue swelling after topical application of arachidonic acid, as described previously [Hanus (1999) id. ibid.]. Briefly, at various times after i.p. drug injections, arachidonic acid was applied to the inner surface of one ear (4.5 mg dissolved in […] ethanol). The opposite ear served as control (5 ethanol). Ear thickness was determined (in 0.01-mm units) by using a dial thickness gauge (Mitutoyo, Japan) every 15 minutes for 90 minutes, starting immediately after arachidonic acid application.

female Sabra mice [8] = assay: Tetrad: ambulation (horizontal movements) in an open field; type: in vivo; conditions: 20 mg/kg i.p., open field 8 min, 30 or 60 min after injection; normalized; * = P<0.05 vs vehicle
Method: as §3

female Sabra mice [9] = assay: Tetrad: rearing (vertical movements) in an open field; type: in vivo; conditions: 20 mg/kg i.p., open field 8 min; normalized; * = P<0.05 vs vehicle
Method: as §3

female Sabra mice [10] = assay: Hypothermia (rectal temperature); type: in vivo; conditions: 20 mg/kg i.p., * = P<0.05 vs vehicle
Method: as §3, §2

female Sabra mice [11] = assay: Intestinal motility after antagonist pre-treatment (SR141716A, SR144528, capsazepine); type: in vivo
Method: (SR1, 1 mg/kg). SR1 was injected (i.p.) 30 minutes before the agonist. 60 minutes after (+)CBD-DMH the number of fecal pellets was recorded.
(SR2, 1 mg/kg). SR2 was injected (i.p.) 30 minutes before the agonist. 60 minutes after (+)-CBD-DMH the number of fecal pellets was recorded.
as §3, §2

[12] = system: CB1−/− receptor knockout mice; assay: Central effects in CB1−/− receptor knockout mice; type: in vivo; conditions: not shown
Method: as §1, §3

female Sabra mice [13] = assay: Tetrad overall (central cannabinoid activity); type: in vivo; conditions: 20 mg/kg i.p., tested 60 minutes later
Method: Central activity of the compounds of the invention was assessed in the “tetrad”, which is a series of assays commonly used to measure central cannabimimmetic effects [Martin, B. R. et al. (1991) Pharmacol. Biochem. Behav. 40(3): 471-8; Fride, E. and C. Sanudo-Pena (2002) id. ibid.]. Three parameters for peripheral activity were used. Since gastrointestinal transit is regulated locally in the periphery rather than by centrally located CB1 receptors [Izzo (2000) id. ibid.; Landi (2002) id. ibid.], intestinal motility was one of the parameters used, and peripheral cannabinoid effects was measured as rates of defecation (see Example 29).
as §3

CB2 receptor [14] = molecular target: T2, CB2 receptor; assay: CB2 receptor binding; conditions: for Ki: second value of CB1/CB2 cell
CB1 receptor [15] = molecular target: T1, CB1 receptor; assay: CB1 receptor binding; conditions: for Ki: first value of CB1/CB2 cell
female Sabra mice [16] = conditions: Hanus (1999); antagonized by SR144528, not by SR141716A; cited from earlier work

Compound | Inhibition of Intesitinal Motility (% MPE) (female Sabra mice [2]) | Analgesia (Hot Plate) (% MPE) (female Sabra mice [5]) | Catalepsy (Freezing of Movement) (% MPE) (female Sabra mice [6]) | Horizontal Movements (% MPE) (female Sabra mice [8]) | Vertical Movements (% MPE) (female Sabra mice [9]) | Hypothermia (Δ-Body Temp.) (female Sabra mice [10]) | Ki (CB2 receptor [14]) | Ki (CB1 receptor [15]) | further results
C=C(C)C1CCC(CO)=CC1c1c(O)cc(C(C)(C)CCCCCC)cc1O (single isomer, unassigned; (+)) [+70H−CBD−DMH, (+)-7-Hydroxy CBD-DMH] | 100* % MPE | 100* % MPE | 95* % MPE | 01* % MPE | 0* % MPE | −5.2* ° C. |  |  | effect on intestinal motility in CB1−/− knockout mice ([1]; listed as (+)-7-OH-CBD-DMH): None of the drugs assessed ((+)-CBD-DMH, (+)-7-OH-CBD-DMH and Δ^9-THC had any effect; also recorded: no effects; inhibition of defecation / intestinal motility, in words (female Sabra mice [2]): completely blocked; Ki (CB1 receptor [3]; first value of CB1/CB2 cell, data from Bisogno et al., 2001, read-out: CB1 Receptor Binding (Ki)): 2.5 nM; Kd (CB1 receptor [3]; previously reported, Bisogno et al. 2001, read-out: affinity for the CB1 receptor (Kd)): 2.5 nM; Kd (CB2 receptor [4]; previously reported, Bisogno et al. 2001, read-out: affinity for the CB2 receptor (Kd)): 44 nM; Ki (CB2 receptor [4]; second value of CB1/CB2 cell, data from Bisogno et al., 2001, read-out: CB2 Receptor Binding (Ki)): 44 nM; inhibition of arachidonic acid-induced ear inflammation, in words ([7]; listed as (+)7OH-CBD-DMH): effectively prevented ear inflammation; inhibition of arachidonic acid-induced ear inflammation, in words ([7]; listed as (+)-7-OHCBD-DMH): inhibited ear inflammation; reversal of inhibition of defecation by CB1 antagonist SR141716A (female Sabra mice [11]; agonist 20 mg/kg, SR141716A 1 mg/kg i.p. 30 minutes before agonist): effectively antagonized; reversal of inhibition of defecation by CB2 antagonist SR144528 (female Sabra mice [11]; agonist 20 mg/kg, SR144528 1 or 3 mg/kg i.p. 30 minutes before agonist): not at all; effect of VR1 antagonist capsazepine on inhibition of defecation (female Sabra mice [11]; data not shown): did not affect; central effects in CB1−/− receptor knockout mice [12]: None of the drugs assessed ((+)-CBD-DMH, (+)-7-OH-CBD-DMH and Δ^9-THC had any effect; central effects (tetrad), in words (female Sabra mice [13]): very potent; central effects (tetrad), in words (female Sabra mice [13]; listed as (+)-7-OH-CBD-DMH): had central effects in all assays of the tetrad; central effects (tetrad), in words (female Sabra mice [13]; listed as (+)-7OH-CBD-DMH): significant and consistent central activity
C=C(C)C1CCC(C(=O)O)=CC1c1c(O)cc(CCCCC)cc1O (single isomer, unassigned) [+COOH−CBD, 7-Nor-carboxy CBD] | 100* % MPE |  | 06 % MPE | 80 % MPE | 71 % MPE | −0.6 °C | 322 nM | 13.2 nM | 
C=C(C)C1CCC(C(=O)O)=CC1c1c(O)cc(C(C)(C)CCCCCC)cc1O (single isomer, unassigned; (+)) [+COOH−CBD−DMH, (+)-7-Nor-carboxy CBD DMH] | 100* % MPE | 09 % MPE | 0 % MPE | 102 % MPE | 100 % MPE | 0.2 °C | 156 nM | 5.8 nM | 
CCCCCCC(C)(C)c1cc(OC)c([C@@H]2C=C(CO)[C@@H]3C[C@H]2C3(C)C)c(OC)c1 [HU-308] |  |  |  |  |  |  |  |  | inhibition of defecation (earlier report) (female Sabra mice [16]): inhibited defecation
CCCCCc1cc(O)c2c(c1)OC(C)(C)[C@@H]1CCC(C)=C[C@@H]21 [Δ^9−THC, Delta-9 tetrahydrocannabinol, reference compound] | 100* % MPE | 97* % MPE | 44* % MPE | 44* % MPE | 12* % MPE | −2.1* ° C. |  |  | effect on intestinal motility in CB1−/− knockout mice [1]: None of the drugs assessed ((+)-CBD-DMH, (+)-7-OH-CBD-DMH and Δ^9-THC had any effect; also recorded: No significant effects; central effects in CB1−/− receptor knockout mice [12]: None of the drugs assessed ((+)-CBD-DMH, (+)-7-OH-CBD-DMH and Δ^9-THC had any effect
COc1ccc2c(c1)c(CC(=O)O)c(C)n2C(=O)c1ccc(Cl)cc1 [Indomethacin, reference compound] |  |  |  |  |  |  |  |  | potency compared to indomethacin in ear inflammation, in words ([7]; (+)-CBD-DMH 40 or 10 mg/kg vs indomethacin 20 mg/kg): Equal potencies
C=C(C)C1CCC(CO)=CC1c1c(O)cc(CCCCC)cc1O (single isomer, unassigned; (+)) [+70H−CBD, (+)-7-Hydroxy CBD] | 89* % MPE | 77 % MPE | 0 % MPE | 107 % MPE | 81 % MPE | 0.3 °C | 101 nM | 5.3 nM | 
C=C(C)C1CCC(C)=CC1c1c(O)cc(CCCCC)cc1O (single isomer, unassigned; (+)) [+CBD, (+)-CBD] | 13 % MPE | 13 % MPE | 05 % MPE | 108 % MPE | 103 % MPE | 0.5 °C |  |  | inhibition of defecation / intestinal motility, in words (female Sabra mice [2]): had no central neither peripheral (intestinal motility) effects; also recorded: Lack of effects; inhibition of arachidonic acid-induced ear inflammation, in words [7]: had no effect; CB2 receptor binding, in words (CB2 receptor [14]): weakly binds; CB1 receptor binding, in words (CB1 receptor [15]): weakly binds; central effects (tetrad), in words (female Sabra mice [13]): had no central neither peripheral (intestinal motility) effects; also recorded: Lack of effects
